# Test results from US6563025B1, “Nucleotide sequences encoding anthranilate synthase” (Board of Trustees of the University of Illinois, priority 1996, dated 2003).
# “And” between values parts separate entries of the source, which are not always exact repeats. Equal entries are not always repeated. “Also recorded” adds a separate entry of the source. Where two headings read alike, the source gives them in different places.
# What was measured:
# [1] = tested on: E. coli trpE5972; test: Complementation and inhibition tests in trpE mutant E. coli; assay type: cell-based; details: no Trp
# Protocol: The pQES61K was transformed into a trpE nonsense (trpE 5972) mutant E. coli. The trpE nonsense mutant E. coli (trpE 5972) transformed with an expression vector itself (Vector) and the ASA2 cDNA ligated into the expression vector (ASA2) were plated on the M9 minimal medium containing, isopropyl-thiogalactoside (IPTG, 0.1 mM) and ampicillin (100 μg/ml) and either with Trp (+Trp, FIG. 5A) or without Trp (−Trp, FIG. 5B). The complemented strain grew well on M9 medium without Trp and also with 300 μM 5MT (FIG. 5C) which inhibits the growth of the complemented strain carrying feedback-sensitive plant AS (Bohlmann et al., Plant Physiol., 111: 507-514, 1996).
# The chimeric constructs were transformed into trpE mutant E. coli (trpE5972, nonsense mutant) using CaCl2 transformation (Sambrook et al., 1989, supra). Complemented strains were plated on M9 minimal medium containing ampicillin (100 μg/ml) and isopropylthiogalactoside (IPTG, 0.1 mM), but no Trp. For the inhibition test, 300 μM 5MT was added to the minimal medium described previously. FIGS. 16A and 16B were taken two days after streaking.
# [2] = tested on: A. sinicus hairy root lines; test: Quantitative root growth test of A. sinicus hairy root lines with 5MT; assay type: cell-based
# Protocol: Hairy roots were weighed to determine fresh weight, and these samples were dried for 12 h at […] before dry weight determination.
# Since expression of the feedback-insensitive ASA2 gene should increase resistance to the Trp analog 5MT as shown previously with E. coli (Song et al., 1998), a quantitative root growth test was used to assess the extent of 5MT resistance of the transformed hairy root lines. Transformed roots were grown for 6 weeks with 0, 10, 15, 20, 25, 30, 40, 50, 75 and 100 μM 5MT in both MS liquid and solid medium, respectively (FIGS. 18A to 18C and FIGS. 19A and 19B).
# [3] = tested on: soybean hairy root lines; test: Quantitative root growth test of soybean hairy root lines with 5MT; assay type: cell-based; details: solid medium, 8 weeks; compared with A. sinicus
# Protocol: The soybean (cv. Williams 82) cotyledons from 4 to 6-day-old-seedlings were harvested and wounded with a scalpel previously-dipped into an overnight culture of the A. rhizogenes strain K599. Cotyledons were inoculated by cutting the adaxial face several times to form a checked wound site and the abaxial side was placed on sterile distilled water partially immersed filter paper and incubated as described above. Three days after inoculation, cotyledons were transferred to medium containing Murashige and Skoog basal minerals and B5 organics (Gamborg, O. L., et al. Expt. Cell. Res. 50: 148-151, 1968) solidified with 3 g/1 Gellan gum (Kelko, Division of Merck) (MXB medium) in 100×25 mm petri dishes. To inhibit the growth of bacteria and to select transformed roots, 500 mg/l of carbenicillin disodium and 200 mg/l kanamycin were added to the MXB medium. After hairy roots developed from wounded cotyledons,. single root tips (2-3 cm) were excised and used to establish bacteria-free root clones by subculture to fresh MXB solid medium grown at 28° C. in the dark. […]
# Large numbers of kanamycin resistant root lines were produced from soybean cotyledons transformed with pBIN-ASA2 and a quantitative root growth test was also performed to assess the extent of 5MT resistance of the transformed hairy root lines. […]
# [4] = tested on: A. sinicus seedlings; test: Direct selection of hairy root lines from A. sinicus seedlings; assay type: cell-based
# Protocol: Four to seven day old seedlings of A. sinicus with roots removed were then fully immersed in the 1 day cultured bacterial suspension in a petri dish for 10 min, wiped with sterilized filter paper and then placed on partially water immersed filter paper and incubated under 16 h light ([…] m-2 s-1, cool white fluorescent lamps). Three days after co-cultivation, plants were transferred to Murashige and Skoog (Murashige, T., & Skoog, F. Physiol. Plant. 15:473-497, 1962), MS, medium solidified with 3g/l Gellan Gum containing 500 mg/l of carbenicillin disodium and 75 mg/l kanamycin.
# Since the A. sinicus hairy root lines initially selected for kanamycin-resistance but which were also transformed with the feedback-insensitive ASA2 cDNA show resistance to growth inhibition by 5MT (FIG. 18), we wanted to determine if direct selection could be done for A. sinicus hairy root line formation on medium containing 5MT (FIGS. 21A and 21B). Transformation of A. sinicus seedlings with DC-AR2 harboring pBIN-ASA2 gave rise to hairy root line formation on medium containing 0, 15, 20, 25, 30 and 40 μM 5MT but inhibition occurred at 50, 75 and 100 μM.
# [5] = tested on: tobacco ASA2; test: Feedback inhibition assay of tobacco ASA2 expressed in E. coli; assay type: biochemical, N. tabacum; details: partially purified ASA2 expressed in E. coli
# Protocol: The tobacco ASA2 gene was expressed in E. coli strain trpE5972, a mutant line containing a nonsense trpE gene, grown to late log phase on Luria Bertani medium with 100 μM Trp. Expression was induced by addition of 100 μM isopropylthiogalactoside. A protease inhibitor, 135 μM phenylmethylsulfonylfluoride (PMSF), was added with further incubation for three hours at 30° C., 150 rpm. The cells were collected by centrifugation and resuspended in 50 mM Tris, 5 mM MgCl2, 100 mM NH4Cl, 2 mM dithiothreitol, 20% glycerol, pH 8.0 plus 100 μM PMSF and disrupted using a French press (2 passes, 20,000 psi). Cell debris was removed by centrifugation and the supernatant treated with Ni-affinity resin. Bound protein was eluted with 100 μM imidazole in pH 6.3 buffer.
# [6] = target: T1, Arabidopsis ASA1 (Arabidopsis thaliana, UniProt P32068); test: Feedback inhibition assay of Arabidopsis ASA1 expressed in E. coli; assay type: biochemical, A. thaliana; details: 100 μM and lower concentrations of Trp; crude E. coli cell extract
# T1 construct: made in house; host or cells: E. coli JM109
# T1 sequence (P32068 55-595): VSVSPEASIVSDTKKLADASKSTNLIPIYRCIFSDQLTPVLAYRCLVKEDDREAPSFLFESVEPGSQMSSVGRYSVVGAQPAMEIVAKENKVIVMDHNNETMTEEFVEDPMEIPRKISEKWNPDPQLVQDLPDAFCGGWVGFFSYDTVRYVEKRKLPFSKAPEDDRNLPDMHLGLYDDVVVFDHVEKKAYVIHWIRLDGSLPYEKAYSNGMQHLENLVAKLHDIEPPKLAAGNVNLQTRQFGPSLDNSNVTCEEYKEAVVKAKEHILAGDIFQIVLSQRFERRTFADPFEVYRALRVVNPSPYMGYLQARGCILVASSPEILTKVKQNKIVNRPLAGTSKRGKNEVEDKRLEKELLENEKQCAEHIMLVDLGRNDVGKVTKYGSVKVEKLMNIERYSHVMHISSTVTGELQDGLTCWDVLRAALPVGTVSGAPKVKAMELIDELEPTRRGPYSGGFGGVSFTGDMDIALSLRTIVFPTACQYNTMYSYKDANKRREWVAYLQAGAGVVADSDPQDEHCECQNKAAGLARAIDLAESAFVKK
# Protocol: The tobacco ASA2 gene was expressed in E. coli strain trpE5972, a mutant line containing a nonsense trpE gene, grown to late log phase on Luria Bertani medium with 100 μM Trp. Expression was induced by addition of 100 μM isopropylthiogalactoside. A protease inhibitor, 135 μM phenylmethylsulfonylfluoride (PMSF), was added with further incubation for three hours at 30° C., 150 rpm. The cells were collected by centrifugation and resuspended in 50 mM Tris, 5 mM MgCl2, 100 mM NH4Cl, 2 mM dithiothreitol, 20% glycerol, pH 8.0 plus 100 μM PMSF and disrupted using a French press (2 passes, 20,000 psi). Cell debris was removed by centrifugation and the supernatant treated with Ni-affinity resin. Bound protein was eluted with […] imidazole in pH 6.3 buffer. The Arabidopsis ASA1 gene was similarly expressed except that the E. coli strain JM109 was used and enzyme activity in a crude cell extract without Ni-affinity purification was characterized.
# Enzyme activity was measured with and without Trp in 50 mM Tris, 5 mM M?gCl2, 1 mM EDTA, 100 mM NH4Cl, 2 mM dithiothreitol, 20% glycerol, pH 7.8 plus 100 μM chorismate. Anthranilate produced in; 30 min at 30° C. was extracted using ethyl acetate and fluorescence measured at excitation 340 and emission 400.
# [7] = target: anthranilate synthase; test: AS activity in extracts of A. sinicus hairy root lines, inhibition by Trp; assay type: biochemical; details: control lines; Trp concentration causing 50% inhibition; NH4Cl as second substrate; read-out: apparent Ki for Trp
# Protocol: Extracts were prepared using a Tenbroeck tissue grinder (Kontes Glass Co., Vineland, N.J.), and the ASA1 extraction buffer (2 ml/g tissue) described by Bernasconi and coworkers (Bernasconi, P., et al., Plant Physiol., 106: 353-358, 1994). After removal of cellular debris by centrifugation (10 min at 35,000 × g and 4° C.), one volume of the supernatant was combined with two volumes of room temperature saturated (NH4)2SO4, and then centrifuged as before. The resulting pellet was resuspended in extraction buffer (1 ml/g tissue) and used immediately. When glutamine was used as the second substrate for the AS catalyzed reaction, the resuspended enzyme solution was desalted using Sephadex G25 to remove residual (NH4)2SO4.
# AS activity was measured as described in Song et al. (1998, supra) except the assay buffer was that described by Bernasconi et al. (1994, supra) without NH4Cl in the buffer. Either 100 mM NH4Cl or 10 mM glutamine was added to the assay mixture to determine α-subunit activity or AS holoenzyme activity, respectively.
# [8] = target: tobacco ASA2; details: ASA2 expressed in E. coli; read-out: apparent Ki for Trp; cited from earlier work
# [9] = tested on: AS; test: AS activity in extracts of tobacco suspension cultured cells, inhibition by Trp; assay type: biochemical, N. tabacum; details: 100 μM Trp; original 5MT-resistant cell lines
# [10] = tested on: AS; details: cited from earlier work; for Ki: read-out: apparent Ki for Trp
# [11] = target: altered AS (Arabidopsis thaliana, UniProt P32068, D341N); details: 100 μM Trp; cited from earlier work
# Chain of altered AS (P32068 55-595 D341N): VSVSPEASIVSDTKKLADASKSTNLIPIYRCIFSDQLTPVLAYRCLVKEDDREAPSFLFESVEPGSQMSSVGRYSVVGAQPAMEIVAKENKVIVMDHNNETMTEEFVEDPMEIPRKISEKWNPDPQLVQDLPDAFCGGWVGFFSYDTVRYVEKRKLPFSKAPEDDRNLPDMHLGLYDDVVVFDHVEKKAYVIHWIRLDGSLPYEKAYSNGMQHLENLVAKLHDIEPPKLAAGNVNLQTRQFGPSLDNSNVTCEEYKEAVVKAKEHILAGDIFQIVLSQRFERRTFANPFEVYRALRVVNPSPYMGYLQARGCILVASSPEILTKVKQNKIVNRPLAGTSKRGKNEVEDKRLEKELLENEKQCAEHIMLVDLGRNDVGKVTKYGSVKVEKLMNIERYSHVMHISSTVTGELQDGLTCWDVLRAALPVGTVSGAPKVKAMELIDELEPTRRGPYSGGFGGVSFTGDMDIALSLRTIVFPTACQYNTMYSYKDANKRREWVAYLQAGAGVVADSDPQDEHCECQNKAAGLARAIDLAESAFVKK
# [12] = control hairy root lines, 6 weeks
# [13] = seedlings transformed with DC-AR2 harboring pBIN-ASA2
smiles,measurement,setting,value
"Cc1ccc2[nH]cc(C[C@H](N)C(=O)O)c2c1 [5MT, 5-methyltryptophan]",Growth on minimal medium with 5MT,"[1]; site-directed mutagenized ASA2 alone, 10 μM 5MT",could not grow
same,Growth on minimal medium with 5MT,"[1]; strain transformed with ASA2 cDNA, 300 μM 5MT",grew well; also recorded: not inhibited
same,Growth on minimal medium with 5MT,"[1]; strain transformed with site-directed mutant (Ser107, Gln108), 300 μM 5MT",did not grow
same,5MT concentration inhibiting hairy root growth,[2]; [12],10 to 20 µM
same,5MT concentration of almost complete inhibition,[2]; [12],≥ 30 µM
same,5MT concentration at which lines turned brown and died,"[2]; control hairy root lines, liquid medium",≥ 20 µM
same,5MT concentration at which lines grew,"[2]; transformed lines A-7, 8, 9, 10 and 20, liquid medium",up to 100 μM
same,5MT concentration at which lines are able to grow,"[2]; transformed lines A-7, 8, 9, 10 and 20, maximum concentration tested",up to 100 μM
same,Sensitivity of hairy root lines to 5MT inhibition,[3],more sensitive to 5MT inhibition than those of A. sinicus
same,5MT concentration for effective direct selection of 35S-ASA2 transformed roots,[4],15 to 40 µM
same,5MT concentration at which roots turned brown and died,"[4]; control roots, DC-AR2, subculture",≥ 15 µM
same,5MT concentration at which no hairy root lines were formed,"[4]; control, transformed with DC-AR2",≥ 25 µM
same,5MT concentration allowing hairy root line formation,[4]; [13],≤ 40 µM
same,5MT concentration at which inhibition of hairy root formation occurred,[4]; [13],≥ 50 µM
"N[C@@H](Cc1c[nH]c2ccccc12)C(=O)O [Trp, tryptophan]",AS activity remaining at 100 μM Trp,[5],50%
same,Inhibition of Arabidopsis ASA1 gene product by Trp,[6],completely inhibited
same,Ki,[7],2000 nM and 3000 nM
same,Ki,[8],100000 nM
same,enzyme activity of the feedback-insensitive ASA2,[9],50%
same,AS activity remaining,"[10]; 900 μM Trp, 5MT-selected tobacco cells overexpressing ASA2, also AB15-12-1",20%
same,Ki,[10]; extracts of 5MT-resistant tobacco suspension cultured cells,300000 nM
same,Ki,[10]; extracts of wild-type tobacco suspension cultured cells,2000 nM
same,AS inhibition by Trp,[11],95%
